# Earlier results as cited in US20100150991A1, “Combination Wound Therapy” (priority 2008, published 2010).
# Assays:
# [1] = topical application of gaseous nitric oxide
# [2] = tested on: neutrophil adhesion, platelets, and pro-inflammatory cutokines in the circulating blood; settings: doses of less than 80 ppm; by reducing neutrophil adhesion, platelets and pro-inflammatory cytokines in circulating blood
# acute and chronic wounds = settings: topical CO2, acute and chronic wounds; Wollina et al 2004
# [3] = CO2 insufflation compared with air insufflation; van der Linden and Persson 2003
Compound,half life of NO in contact with tissues [1],anti-inflammatory effect [2],clinical evidence in wounds (acute and chronic wounds),rates of infection [3]
"[N]=O [NO, nitric oxide]",6 min,anti-inflammatory effect,,
"O=C=O [CO2, carbon dioxide]",,,increased granulation tissue and reduction of discharge and malodor,lower rates of infection than air insufflation
